As usually defined, the IC50 is the concentration at which inhibition is half-maximal.

Chain of Human Factor D (P00746 26-253): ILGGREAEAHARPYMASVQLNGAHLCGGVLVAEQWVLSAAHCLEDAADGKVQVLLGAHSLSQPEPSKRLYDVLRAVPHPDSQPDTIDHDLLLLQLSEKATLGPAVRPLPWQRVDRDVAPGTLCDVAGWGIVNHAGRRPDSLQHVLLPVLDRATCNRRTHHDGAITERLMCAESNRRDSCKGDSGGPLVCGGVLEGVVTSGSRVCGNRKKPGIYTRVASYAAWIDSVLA

In the first assay the target is Human Factor D (Homo sapiens (Human), UniProt P00746). Briefly: Human Factor D Assay. The conditions noted are these: Table 1; Factor D purified from human serum, 80 nM, substrate Z-L-Lys-SBzl; read-out: IC50. The class given is biochemical. The method in brief:
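Serum-purified human Factor D (80 nM final) preincubated with compound for 5 min at room temperature in 50 mM Tris, 1 M NaCl, pH 7.5. Z-L-Lys-SBzl and DTNB added at 100 μM each; A405 read every 30 s for 30 min. IC50 by nonlinear regression of reaction rates.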
Turning to `CC(=O)c1cn(CC(=O)N2C[C@H](F)C[C@H]2C(=O)Nc2nc(-c3ccc4c(c3)CCCC4)cs2)c2ccc(Nc3cncnc3)cc12` [Compound 50, (2S,4R)-1-(2-(3-acetyl-5-(pyrimidin-5-ylamino)-1H-indol-1-yl)acetyl)-4-fluoro-N-(4-(5,6,7,8-tetrahy-dronaphthalen-2-yl)thiazol-2-yl)pyrrolidine-2-carboxamide], the IC50 is > 10000 nM.
Still for that read-out and setting: the same measure for `CC(=O)c1cn(CC(=O)N2C[C@H](F)C[C@H]2C(=O)Nc2nccc(Cl)n2)c2ccc(Nc3cncnc3)cc12` [Compound 73, (2S,4R)-1-(2-(3-acetyl-5-(pyrimidin-5-ylamino)-1H-indol-1-yl)acetyl)-N-(4-chloropyrimidin-2-yl)-4-fluoropyrrolidine-2-carboxamide]: < 1000 nM; for `CC(=O)c1cn(C(=O)CN2C[C@H](F)C[C@H]2C(=O)Nc2nnc(-c3ccc(Cl)c(Cl)c3)s2)c2ccc(Nc3cncnc3)cc12` [Compound 39, (2S,4R)-1-(2-(3-acetyl-5-(pyrimidin-5-ylamino)-1H-indol-1-yl)-2-oxoethyl)-N-(5-(3,4-dichlorophenyl)-1,3,4-thiadiazol-2-yl)-4-fluoropyrrolidine-2-carboxamide]: > 10000 nM.
Still for that read-out and setting: then `CC(=O)c1cn(CC(=O)N2C[C@H](F)C[C@H]2C(=O)NC2CCCN(c3cc(C)ccc3F)C2=O)c2ccc(Nc3cncnc3)cc12` (stereo partly drawn) [Compound 63, (2S,4R)-1-(2-(3-acetyl-5-(pyrimidin-5-ylamino)-1H-indol-1-yl)acetyl)-4-fluoro-N-(1-(2-fluoro-5-methylphenyl)-2-oxopiperidin-3-yl)pyrrolidine-2-carboxamide], with < 1000 nM.
Same read-out and setting: the same measure for `CC(=O)c1cn(CC(=O)N2C[C@H](F)C[C@H]2C(=O)Nc2nc(-c3cccc(Cl)c3)ns2)c2ccc(Nc3cncnc3)cc12` [Compound 60, (2S,4R)-1-(2-(3-acetyl-5-(pyrimidin-5-ylamino)-1H-indol-1-yl)acetyl)-N-(3-(3-chlorophenyl)-1,2,4-thiadiazol-5-yl)-4-fluoropyrrolidine-2-carboxamide]: > 10000 nM; for `CC(=O)c1cn(CC(=O)N2C[C@H](F)C[C@H]2C(=O)NCc2cc(F)cc(Cl)c2)c2ccc(Nc3cncnc3)cc12` [Compound 18, (2S,4R)-1-(2-(3-acetyl-5-(pyrimidin-5-ylamino)-1H-indol-1-yl)acetyl)-N-(3-chloro-5-fluorobenzyl)-4-fluoropyrrolidine-2-carboxamide]: < 1000 nM; for `CC(=O)c1cn(CC(=O)N2C[C@H](F)C[C@H]2C(=O)Nc2cncc(Br)c2)c2ccc(Nc3cncnc3)cc12` [Compound 21, (2S,4R)-1-(2-(3-acetyl-5-(pyrimidin-5-ylamino)-1H-indol-1-yl)acetyl)-N-(5-bromopyridin-3-yl)-4-fluoropyrrolidine-2-carboxamide]: < 1000 nM.
For `CC(=O)c1cn(CC(=O)N2C[C@H](F)C[C@H]2C(=O)NCc2cccc(Cl)c2)c2ccc(Nc3cncnc3)cc12` [Compound 19, (2S,4R)-1-(2-(3-acetyl-5-(pyrimidin-5-ylamino)-1H-indol-1-yl)acetyl)-N-(3-chlorobenzyl)-4-fluoropyrrolidine-2-carboxamide], the IC50 is < 1000 nM.
For `NC(=O)c1nn(CC(=O)N2C[C@H](F)C[C@H]2C(=O)Nc2cccc(-c3ccccc3Cl)c2F)c2ccc(Nc3cncnc3)cc12` [Compound 10, 1-(2-((2S,4R)-2-(2′-chloro-2-fluorobiphenyl-3-ylcarbamoyl)-4-fluoropyrrolidin-1-yl)-2-oxoethyl)-5-(pyrimidin-5-ylamino)-1H-indazole-3-carboxamide], the IC50 is < 1000 nM.

Staying with this assay, now noted: Table 3; Factor D purified from human serum, 80 nM, substrate Z-L-Lys-SBzl; read-out: IC50 (Stars).
With `CC(=O)c1cn(CC(=O)N2C[C@H](F)C[C@H]2C(=O)NCCCCc2ccccc2)c2ccc(Nc3cncnc3)cc12` [Compound 156, (2S,4R)-1-(2-(3-acetyl-5-(pyrimidin-5-ylamino)-1H-indol-1-yl)acetyl)-4-fluoro-N-(4-phenylbutyl) pyrrolidine-2-carboxamide], the IC50 is < 1000 nM.
Take `CC(=O)c1cn(CC(=O)N2C[C@H](F)C[C@H]2C(=O)NCCCCc2ccccc2)c2ccc(Nc3cccnc3)cc12` [Compound 152, (2S,4R)-1-(2-(3-acetyl-5-(pyridin-3-ylamino)-1H-indol-1-yl)acetyl)-4-fluoro-N-(4-phenylbutyl) pyrrolidine-2-carboxamide]: the IC50 is < 1000 nM.

The values above are taken from US10660876B2, “Amino compounds for treatment of medical disorders” (Achillion Pharmaceuticals, Inc., priority 2015, dated 2020).
